Measurements published in ChEMBL document CHEMBL1201862, “PubChem BioAssay data set” (2004).
Active and inactive are the calls of the source.

What was measured:
Beta-lactamase [1] = target: Beta-lactamase (Pseudomonas aeruginosa, UniProt Q79MP6);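 also: biochemical dose-response test of metallo-beta-lactamase enzyme inhibition, read out by epi-absorbance; purified recombinant IMP-1 metallo-beta-lactamase with nitrocefin as substrate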
Beta-lactamase [2] = target: Beta-lactamase (Salmonella choleraesuis (strain SC-B67), UniProt Q5J463)
[3] = target: T1, Low molecular weight phosphotyrosine protein phosphatase (Homo sapiens, UniProt P24666); type: functional; details: read-out: IC50_Mean;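 also: Dose-response confirmation assay measuring inhibition of LMPTP enzyme activity by fluorescence intensity read-out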
T1 sequence (P24666 whole entry): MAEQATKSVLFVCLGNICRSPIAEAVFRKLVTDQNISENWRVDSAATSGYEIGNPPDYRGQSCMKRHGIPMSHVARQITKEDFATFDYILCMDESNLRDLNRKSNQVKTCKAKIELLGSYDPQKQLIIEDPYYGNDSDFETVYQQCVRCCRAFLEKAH

[4] = human group III sPLA2 inhibitors, dose response, biochemical, QFRET, IC50 (AID 743457);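 also: green fluorescence rise as the enzyme cleaves BODIPY PC-A2 in liposomes; potency for inhibition of the enzyme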
[5] = A549 cell cytotoxicity, dose response, cytotoxicity control, plate reader, cherry-pick, antagonist series (AID 743412); type: functional, cell-based
[6] = HepG2 cell cytotoxicity, dose response, cytotoxicity control, plate reader, cherry-pick, antagonist series (AID 743416); type: functional, cell-based
[7] = LGR2 antagonists, dose response, cell-based, HEK293, CRE-luciferase reporter, cherry pick, set 2 (AID 743343); type: functional;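 also: transfected cells were stimulated with diluted bursicon conditioned medium after compound addition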
[8] = MC4R antagonists, dose response, counter-screen for LGR2 antagonist project, cell-based, plate reader, cherry pick (AID 743444); type: functional;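 also: transfected HEK 293 cells stimulated with alpha-MSH peptide; potency of inhibitors of the alpha-MSH evoked signal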
[9] = HEK293 cell cytotoxicity, dose response, cytotoxicity control, plate reader, cherry-picked samples (AID 743446); type: functional, cell-based
Major prion protein = Major prion protein (Homo sapiens, UniProt P04156); type: functional, cell-based
cells [10] = assay: cells
[11] = inhibitors of HIV Env-driven cell fusion, dose response, cherry-pick (AID 652057); type: functional, cell-based
[12] = CEM21 lymphoblast cell cytotoxicity, dose response, cytotoxicity control for viral fusion inhibitor project, CellTiter-Glo luminescence, cherry-picked (AID 652042); type: functional, cell-based;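 also: potency for signal decrease meaning cytotoxicity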
[13] = ZM109 Env clade C HIV-1 fusion inhibitors, dose response, HeLa effector, CEM target cells, luciferase, cherry-pick (AID 652058); type: functional, cell-based
[14] = inhibitors of clade B AD8 Env fusion, dose response, cell-based, cherry-pick (AID 652062); type: functional;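 also: luciferase signal from cell-cell fusion driven by HIV-1 clade B AD8 Env; potency is for inhibitors of fusion seen as a drop in luminescence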
cells [15] = type: functional, cell-based
[16] = target: T2, Trace amine-associated receptor 1 (Homo sapiens, UniProt Q96RJ0); assay: Fluorescence-based cell-based high throughput dose response assay to identify agonists of the human trace amine associated receptor 1 (TAAR1).; type: functional
T2 sequence (Q96RJ0 whole entry): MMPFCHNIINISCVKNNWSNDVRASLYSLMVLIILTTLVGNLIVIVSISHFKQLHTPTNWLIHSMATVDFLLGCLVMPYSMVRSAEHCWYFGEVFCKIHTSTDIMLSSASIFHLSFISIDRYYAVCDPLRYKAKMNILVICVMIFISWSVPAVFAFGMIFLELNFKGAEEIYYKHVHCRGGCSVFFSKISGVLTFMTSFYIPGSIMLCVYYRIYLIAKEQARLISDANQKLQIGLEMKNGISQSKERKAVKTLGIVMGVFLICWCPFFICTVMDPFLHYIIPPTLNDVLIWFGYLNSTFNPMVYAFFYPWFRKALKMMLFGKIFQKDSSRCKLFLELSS

[17] = target: T2, Trace amine-associated receptor 1; assay: Counterscreen for agonists of the human trace amine associated receptor 1 (hTAAR1): Fluorescence-based cell-based high throughput dose response assay to identify hTAAR1 agonist that also desensitize TAAR1 receptor response.; type: functional
cells [18] = type: functional, cell-based; remark: listed apart in the source
Albumin = Albumin (Bos taurus, UniProt P02769); assay: Counterscreen for inhibitors of T-cell receptor (TCR)-CD3 interaction: Fluorescence-based biochemical high throughput dose response assay to identify inhibitors of T-cell receptor (TCR)-CD3 interaction using a TAMRA-labeled BSA probe.; type: functional

CCn1c(=S)sc2c(=O)n(CC(=O)Nc3ccccc3C(F)(F)F)c(C)nc21
IC50 (Beta-lactamase [1]): 22.7 µM (inactive) | IC50 (Beta-lactamase [2]): > 59.6 µM (inactive) | IC50 [3]: 16.2 µM (active)

COc1ccc(Cl)cc1C(=O)NN=C(S)NC1CCCC1
IC50 [4]: > 122 µM (inactive)

O=C(Nc1ccc(N2CCN(C(=O)c3ccccc3)CC2)c(Cl)c1)c1ccc(Br)o1
AC50 [5]: 34.9 µM (active) | AC50 [6]: 35 µM (active) | AC50 [7]: 16.6 µM (active) | AC50 [8]: 14.9 µM (active) | AC50 [9]: 21.5 µM (active)

O=C(O)c1ccccc1SCc1csc(-c2ccccc2)n1
IC50 (Major prion protein): 6.49 µM (active) | IC50 (cells [10]): > 138 µM (inactive)

CCOc1ccc(C(=O)C2=C(O)C(=O)N(c3ccccn3)C2c2ccccc2F)c(C)c1 (stereo not drawn)
IC50 (Major prion protein): 5.58 µM (active) | IC50 (cells [10]): > 138 µM (inactive)

Cc1ccc(S(=O)(=O)Nc2ccc3c(c2)C(=O)N([C@H](C)CO)C[C@@H](C)[C@@H](CN(C)Cc2ccc(-c4ccccc4)cc2)O3)cc1
AC50 [11]: 18 µM (active) | AC50 [12]: 21.8 µM (active) | AC50 [13]: 16.6 µM (active) | AC50 [14]: 17.4 µM (active)

N#C[C@H]1[C@@H](c2ccc(-c3ccccc3)cc2)[C@@H](CO)N1S(=O)(=O)Cc1ccccc1
AC50 [11]: 1.93 µM (active) | AC50 [12]: 41.5 µM (active) | AC50 [14]: 4.94 µM (active)

COc1ccccc1CCn1cnc(-c2ccccc2OC)c1C(C)C
IC50 (cells [15]): 11.8 µM (inactive) | EC50 [16]: 5.14 µM (active) | IC50 [17]: 3.82 µM (active) | EC50 (cells [18]): > 29.9 µM (inactive) | AC50 [6]: 29.8 µM (active) | AC50 [8]: 29.4 µM (active) | AC50 [9]: > 52 µM (inactive)

O=C(NNC(=O)c1c(O)c2ccccc2[nH]c1=O)c1ccccc1
IC50 (Albumin): > 94.1 µM (inactive)
